Article PMC8387736 (Drug Design, Development and Therapy, 2021)
Where two headings read alike, the source gives them in different places.

Key:
[1] = rats
CYP3As [2] = assay: Inhibition of midazolam metabolism by avitinib in human liver microsomes; assay type: in vitro ADME
CYP1A2 [3] = target: T1, CYP1A2 (Homo sapiens, UniProt P05177); conditions: HLMs
T1 sequence (P05177 1-516): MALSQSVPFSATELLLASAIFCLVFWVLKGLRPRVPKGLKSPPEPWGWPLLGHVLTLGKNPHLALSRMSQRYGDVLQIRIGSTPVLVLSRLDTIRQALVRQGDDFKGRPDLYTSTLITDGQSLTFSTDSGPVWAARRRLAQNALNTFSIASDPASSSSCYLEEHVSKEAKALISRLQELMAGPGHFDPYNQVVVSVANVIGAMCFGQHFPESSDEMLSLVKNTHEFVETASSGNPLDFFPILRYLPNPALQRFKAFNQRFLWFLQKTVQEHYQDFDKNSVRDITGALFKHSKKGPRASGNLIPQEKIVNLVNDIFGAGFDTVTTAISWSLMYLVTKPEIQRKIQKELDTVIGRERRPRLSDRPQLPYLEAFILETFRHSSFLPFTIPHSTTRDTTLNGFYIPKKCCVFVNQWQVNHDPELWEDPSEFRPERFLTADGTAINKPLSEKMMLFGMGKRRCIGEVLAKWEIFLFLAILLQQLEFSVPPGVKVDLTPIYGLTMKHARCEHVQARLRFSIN

CYP2B6 [4] = target: T2, CYP2B6 (Homo sapiens, UniProt P20813); conditions: HLMs
T2 sequence (P20813 1-491): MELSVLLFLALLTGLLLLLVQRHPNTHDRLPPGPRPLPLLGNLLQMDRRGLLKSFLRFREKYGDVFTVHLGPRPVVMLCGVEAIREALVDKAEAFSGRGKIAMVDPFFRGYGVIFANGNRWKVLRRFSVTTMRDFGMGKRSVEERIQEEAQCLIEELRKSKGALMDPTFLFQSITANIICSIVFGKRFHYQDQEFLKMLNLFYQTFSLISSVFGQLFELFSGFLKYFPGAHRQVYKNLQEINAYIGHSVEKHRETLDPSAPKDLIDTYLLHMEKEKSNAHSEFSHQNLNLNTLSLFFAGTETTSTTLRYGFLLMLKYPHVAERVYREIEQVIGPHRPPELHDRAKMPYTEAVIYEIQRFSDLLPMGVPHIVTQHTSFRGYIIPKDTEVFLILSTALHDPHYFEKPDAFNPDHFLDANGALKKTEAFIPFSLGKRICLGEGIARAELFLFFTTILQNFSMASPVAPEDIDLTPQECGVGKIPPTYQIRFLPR

CYP2C9 [5] = target: T3, CYP2C9 (Homo sapiens, UniProt P11712); conditions: HLMs
T3 sequence (P11712 whole entry): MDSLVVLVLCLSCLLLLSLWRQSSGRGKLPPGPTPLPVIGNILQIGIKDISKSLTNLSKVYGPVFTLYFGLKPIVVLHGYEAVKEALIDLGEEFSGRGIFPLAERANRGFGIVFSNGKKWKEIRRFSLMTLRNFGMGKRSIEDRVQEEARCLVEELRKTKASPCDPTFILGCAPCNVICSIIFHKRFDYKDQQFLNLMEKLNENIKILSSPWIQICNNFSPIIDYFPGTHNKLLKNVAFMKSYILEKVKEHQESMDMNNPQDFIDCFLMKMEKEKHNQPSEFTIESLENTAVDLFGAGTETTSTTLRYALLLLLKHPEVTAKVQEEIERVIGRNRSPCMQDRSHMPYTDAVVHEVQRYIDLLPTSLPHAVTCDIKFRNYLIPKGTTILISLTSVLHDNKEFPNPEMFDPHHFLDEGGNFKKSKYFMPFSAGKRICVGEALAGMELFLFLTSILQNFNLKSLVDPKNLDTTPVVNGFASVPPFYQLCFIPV

CYP2D6 [6] = target: T4, CYP2D6 (Homo sapiens, UniProt P10635); conditions: HLMs
T4 sequence (P10635 whole entry): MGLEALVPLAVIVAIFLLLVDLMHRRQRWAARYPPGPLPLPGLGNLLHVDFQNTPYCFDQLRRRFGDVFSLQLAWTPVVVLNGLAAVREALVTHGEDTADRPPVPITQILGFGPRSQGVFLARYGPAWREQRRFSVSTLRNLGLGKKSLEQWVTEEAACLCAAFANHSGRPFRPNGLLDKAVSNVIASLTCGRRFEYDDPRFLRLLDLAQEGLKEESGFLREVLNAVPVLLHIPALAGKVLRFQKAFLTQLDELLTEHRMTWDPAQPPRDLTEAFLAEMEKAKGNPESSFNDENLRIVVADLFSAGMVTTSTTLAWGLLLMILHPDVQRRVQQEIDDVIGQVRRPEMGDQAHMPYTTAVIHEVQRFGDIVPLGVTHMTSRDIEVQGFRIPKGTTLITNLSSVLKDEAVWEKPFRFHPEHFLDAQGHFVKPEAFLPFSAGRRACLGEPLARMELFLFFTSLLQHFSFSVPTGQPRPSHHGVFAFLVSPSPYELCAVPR

CYP2E1 [7] = target: T5, CYP2E1 (Homo sapiens, UniProt P05181); conditions: HLMs
T5 sequence (P05181 whole entry): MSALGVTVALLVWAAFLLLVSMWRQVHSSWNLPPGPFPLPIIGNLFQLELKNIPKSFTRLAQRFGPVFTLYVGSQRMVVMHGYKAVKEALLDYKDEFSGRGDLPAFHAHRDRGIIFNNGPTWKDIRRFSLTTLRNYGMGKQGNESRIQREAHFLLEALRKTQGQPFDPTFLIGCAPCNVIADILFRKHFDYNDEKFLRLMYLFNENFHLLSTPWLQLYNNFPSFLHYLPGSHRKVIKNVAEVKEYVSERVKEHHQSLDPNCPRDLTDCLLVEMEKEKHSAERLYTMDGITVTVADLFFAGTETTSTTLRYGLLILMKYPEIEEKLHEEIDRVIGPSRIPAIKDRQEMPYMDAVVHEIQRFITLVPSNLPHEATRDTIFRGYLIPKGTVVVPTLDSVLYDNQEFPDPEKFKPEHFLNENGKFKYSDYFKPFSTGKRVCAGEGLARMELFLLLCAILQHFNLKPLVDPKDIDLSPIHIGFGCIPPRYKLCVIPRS

CYP1A2 [8] = target: T1, CYP1A2; assay: biochemical
CYP2B6 [9] = target: T2, CYP2B6; assay: biochemical
CYP2C9 [10] = target: T3, CYP2C9; assay: biochemical
CYP2D6 [11] = target: T4, CYP2D6; assay: biochemical
CYP2E1 [12] = target: T5, CYP2E1; assay: biochemical
cyp2b1 = target: T6, cyp2b1 (Rattus norvegicus, UniProt P00176); assay: Inhibition of bupropion metabolism by avitinib in rat liver microsomes
T6 sequence (P00176 1-491): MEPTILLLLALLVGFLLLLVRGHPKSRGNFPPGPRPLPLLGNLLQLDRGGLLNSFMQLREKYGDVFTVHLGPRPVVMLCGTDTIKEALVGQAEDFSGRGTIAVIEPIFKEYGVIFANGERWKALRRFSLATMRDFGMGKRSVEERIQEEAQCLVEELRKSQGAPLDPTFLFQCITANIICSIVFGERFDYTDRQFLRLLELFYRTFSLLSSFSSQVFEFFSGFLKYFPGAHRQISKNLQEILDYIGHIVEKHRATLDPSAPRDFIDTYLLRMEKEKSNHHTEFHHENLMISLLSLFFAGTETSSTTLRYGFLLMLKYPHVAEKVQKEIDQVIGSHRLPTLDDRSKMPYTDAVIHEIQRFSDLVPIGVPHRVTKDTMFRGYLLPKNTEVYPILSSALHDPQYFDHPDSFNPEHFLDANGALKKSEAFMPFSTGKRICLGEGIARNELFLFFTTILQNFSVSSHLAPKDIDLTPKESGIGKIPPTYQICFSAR

cyp3as [13] = assay: Inhibition of midazolam metabolism by avitinib in rat liver microsomes
cyp1a2 [14] = target: T7, cyp1a2 (Rattus norvegicus, UniProt P04799); assay: Inhibition of phenacetin metabolism by avitinib in rat liver microsomes
T7 sequence (P04799 1-513): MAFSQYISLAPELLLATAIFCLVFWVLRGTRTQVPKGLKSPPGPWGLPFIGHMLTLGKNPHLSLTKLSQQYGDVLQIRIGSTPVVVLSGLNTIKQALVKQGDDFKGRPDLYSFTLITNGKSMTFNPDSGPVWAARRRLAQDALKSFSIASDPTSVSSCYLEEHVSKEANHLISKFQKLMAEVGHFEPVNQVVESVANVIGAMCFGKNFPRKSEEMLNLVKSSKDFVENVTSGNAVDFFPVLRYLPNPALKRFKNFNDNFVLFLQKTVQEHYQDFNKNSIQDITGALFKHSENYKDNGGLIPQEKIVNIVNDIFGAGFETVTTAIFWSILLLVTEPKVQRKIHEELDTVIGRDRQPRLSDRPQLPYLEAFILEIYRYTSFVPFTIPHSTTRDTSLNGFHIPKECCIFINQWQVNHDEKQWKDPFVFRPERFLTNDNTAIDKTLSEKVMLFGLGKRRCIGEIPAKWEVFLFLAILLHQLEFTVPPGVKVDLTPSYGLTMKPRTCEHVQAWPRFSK

cyp2c11 = target: T8, cyp2c11 (Rattus norvegicus, UniProt P08683); assay: Inhibition of tolbutamide metabolism by avitinib in rat liver microsomes
T8 sequence (P08683 1-500): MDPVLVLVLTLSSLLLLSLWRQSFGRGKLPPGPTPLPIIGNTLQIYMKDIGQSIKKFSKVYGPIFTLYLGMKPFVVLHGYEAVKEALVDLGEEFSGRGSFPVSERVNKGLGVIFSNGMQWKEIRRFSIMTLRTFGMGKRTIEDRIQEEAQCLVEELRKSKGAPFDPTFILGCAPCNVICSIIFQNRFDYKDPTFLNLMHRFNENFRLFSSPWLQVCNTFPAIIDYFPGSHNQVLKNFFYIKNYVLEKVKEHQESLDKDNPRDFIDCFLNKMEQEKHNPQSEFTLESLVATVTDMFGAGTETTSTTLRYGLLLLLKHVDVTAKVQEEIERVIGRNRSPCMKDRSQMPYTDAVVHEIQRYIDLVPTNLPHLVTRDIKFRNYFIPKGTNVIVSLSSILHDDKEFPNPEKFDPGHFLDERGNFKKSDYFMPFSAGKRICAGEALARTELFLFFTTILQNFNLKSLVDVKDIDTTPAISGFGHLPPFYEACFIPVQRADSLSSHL

cyp2e1 [15] = target: cyp2e1 (Rattus norvegicus, UniProt P05182); assay: Inhibition of chlorzoxazone metabolism by avitinib in rat liver microsomes
Sequence of cyp2e1 (P05182 whole entry): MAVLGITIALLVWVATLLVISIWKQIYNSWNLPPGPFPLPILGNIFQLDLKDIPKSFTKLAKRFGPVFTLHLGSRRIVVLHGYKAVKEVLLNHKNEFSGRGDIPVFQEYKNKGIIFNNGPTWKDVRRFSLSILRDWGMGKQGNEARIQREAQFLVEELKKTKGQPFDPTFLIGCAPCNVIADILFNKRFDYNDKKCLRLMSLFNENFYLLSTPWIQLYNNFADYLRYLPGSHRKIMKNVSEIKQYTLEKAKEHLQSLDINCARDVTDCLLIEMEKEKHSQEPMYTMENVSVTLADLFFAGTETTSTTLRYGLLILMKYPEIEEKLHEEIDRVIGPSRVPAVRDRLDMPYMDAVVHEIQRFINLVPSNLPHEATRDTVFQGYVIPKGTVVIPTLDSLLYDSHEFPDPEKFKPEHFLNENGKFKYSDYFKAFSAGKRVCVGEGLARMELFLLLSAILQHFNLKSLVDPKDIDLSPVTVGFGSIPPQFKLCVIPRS

cyp2d1 = target: T9, cyp2d1 (Rattus norvegicus, UniProt P10633); assay: Inhibition of dextromethorphan metabolism by avitinib in rat liver microsomes
T9 sequence (P10633 1-504): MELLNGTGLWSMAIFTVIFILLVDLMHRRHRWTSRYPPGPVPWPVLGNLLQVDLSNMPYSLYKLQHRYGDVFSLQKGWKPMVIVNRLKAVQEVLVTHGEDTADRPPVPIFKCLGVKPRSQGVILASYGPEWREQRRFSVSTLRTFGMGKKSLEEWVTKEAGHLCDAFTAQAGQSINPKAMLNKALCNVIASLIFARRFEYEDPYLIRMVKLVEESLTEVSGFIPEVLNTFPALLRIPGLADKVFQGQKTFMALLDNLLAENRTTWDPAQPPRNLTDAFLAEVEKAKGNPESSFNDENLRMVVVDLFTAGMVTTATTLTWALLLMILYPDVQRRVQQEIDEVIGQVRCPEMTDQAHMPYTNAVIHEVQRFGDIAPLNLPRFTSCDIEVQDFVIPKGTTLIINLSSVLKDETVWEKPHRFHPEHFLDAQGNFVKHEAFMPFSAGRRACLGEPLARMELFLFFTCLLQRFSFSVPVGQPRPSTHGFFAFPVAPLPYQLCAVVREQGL

[16] = multiple-doses 30 mg/kg avitinib (7 days)
[17] = avitinib 30 mg/kg multiple-doses or single-dose vs control

SMILES: CC(NC(C)(C)C)C(=O)c1cccc(Cl)c1 (stereo not drawn) [Bupropion]
- reduction of CLz/F compared with control group [1, 16]: 57.54%
- reduction of Vz/F compared with control group [1, 16]: 62.74%
- reduction of CLz/F compared with control group ([1]; single-dose 30 mg/kg avitinib): 53.96%
- reduction of Vz/F compared with control group ([1]; single-dose 30 mg/kg avitinib): 64.59%

SMILES: COc1ccc2c(c1)[C@]13CCCC[C@@H]1[C@H](C2)N(C)CC3 [Dextromethorphan]
- change in Tmax values after avitinib (in words) [1, 17]: No significant changes
- reduction of CLz/F compared with control group [1, 16]: 82.22%
- reduction of Vz/F compared with control group [1, 16]: 73.53%
- reduction of CLz/F compared with control group ([1]; single-dose 30 mg/kg avitinib): 67.78%
- reduction of Vz/F compared with control group ([1]; single-dose 30 mg/kg avitinib): 69.7%

SMILES: Cc1ncc2n1-c1ccc(Cl)cc1C(c1ccccc1F)=NC2 [Midazolam]
- difference in Cmax after avitinib (in words) [1, 17]: No significant difference

SMILES: CCOc1ccc(NC(C)=O)cc1 [Phenacetin]
- change in t1/2 values after avitinib (in words) [1, 17]: no significant change
- reduction of CLz/F compared with control group [1, 16]: 63.17%
- reduction of Vz/F compared with control group [1, 16]: 63.09%
- reduction of CLz/F compared with control group ([1]; single-dose 30 mg/kg avitinib): 39.52%

SMILES: CCCCNC(=O)NS(=O)(=O)c1ccc(C)cc1 [Tolbutamide]
- difference in Cmax after avitinib (in words) [1, 17]: No significant difference

SMILES: C=CC(=O)Nc1cccc(Oc2nc(Nc3ccc(N4CCN(C)CC4)c(F)c3)nc3[nH]ccc23)c1 [avitinib, Avitinib]
- inhibitory effect on CYP3As (grade in words) (CYP3As [2]; HLMs): weak
- IC50 at 30 min (CYP3As [2]; human, human liver microsomes, probe midazolam (5 μM)): 59.6 µM
- inhibitory effect on CYP1A2 (grade in words) (CYP1A2 [3]): weak
- inhibitory effect on CYP2B6 (grade in words) (CYP2B6 [4]): weak
- inhibitory effect on CYP2C9 (grade in words) (CYP2C9 [5]): moderate
- inhibitory effect on CYP2D6 (grade in words) (CYP2D6 [6]): weak
- inhibitory effect on CYP2E1 (grade in words) (CYP2E1 [7]): weak
- IC50 (CYP1A2 [8]): 48.4 µM
- IC50 (CYP2B6 [9]): 22.6 µM
- IC50 (CYP2C9 [10]): 6.91 µM
- IC50 (CYP2D6 [11]): 56.6 µM
- IC50 (CYP2E1 [12]): 57.1 µM
- IC50 (cyp2b1): 6.39 µM
- inhibitory effect on cyp2b1 (grade in words) (cyp2b1; RLMs): moderate
- inhibitory effect on cyp3as (grade in words) (cyp3as [13]; RLMs): weak
- IC50 at 30 min (cyp3as [13]; male, Sprague-Dawley, rat, rat liver microsomes, probe midazolam (5 μM)): 27.6 µM
- IC50 (cyp1a2 [14]): 15.8 µM
- inhibitory effect on cyp1a2 (grade in words) (cyp1a2 [14]; RLMs): weak
- IC50 (cyp2c11): 42.2 µM
- inhibitory effect on cyp2c11 (grade in words) (cyp2c11; RLMs): weak
- IC50 (cyp2e1 [15]): 23.2 µM
- inhibitory effect on cyp2e1 (grade in words) (cyp2e1 [15]; RLMs): weak
- IC50 (cyp2d1): 44.4 µM
- inhibitory effect on cyp2d1 (grade in words) (cyp2d1; RLMs): weak
